Legend:
Type in all cases: cell-based
myogenin = myogenin mRNA expression (RT-PCR) during L6 myotube differentiation; conditions: L6 muscle cells, 10, 20 or 40 μg/mL during differentiation, FIG. 14
Protocol: (§1) To confirm the muscle differentiation-promoting activity of a Chrysanthemum extract in L6 myoblasts (ATCC), which are muscle cells, the cells were treated with the 30% ethanol extract of Chrysanthemum, prepared in Example 1-(2), at 5, 10 or 20 μg/mL to induced myotube differentiation by the same method as described in Experimental Example 1-(6). RT-PCR was performed with specific primers (Bioneer) by the same method as described in Experimental Example 2, and the result is shown in FIG. 9.
(§2) To confirm muscle protein synthesis-promoting activity by treatment of L6 myoblasts (ATCC), which are muscle cells, with 3,5-dicaffeoylquinic acid, the cells were treated with the 3,5-dicaffeoylquinic acid obtained in Example 2 at 10, 20 or 40 μg/mL, and then mRNA expression levels of MyoD and myogenin were confirmed by the same method as described in Experimental Example 4.

MuRF-1 = MuRF-1 mRNA expression (RT-PCR) in TNF-α-treated L6 myotubes; conditions: 50 ng/mL TNF-α, 1 or 10 μg/mL, 6 hours
Protocol: (§3) L6 myoblasts (ATCC), which are muscle cells, were added at 1×10^5 cell/mL to a 6-well plate with 10% FBS (Gibco)-containing DMEM (Hyclone). When the cell density reached approximately 80 to 85%, the medium in the well was removed, the cells were treated with 2% HS (Hyclone)-containing DMEM (Hyclone) to induce myotube differentiation. The differentiation was performed for total of 6 days by replacing the medium and a sample with fresh ones every two days. After differentiation, the 30% ethanol extract of Chrysanthemum prepared in Example 1-(2) was dissolved in DMEM (Hyclone) containing 50 ng/mL tumor necrosis factor alpha (TNF-α; PeproTech, Rocky Hills, N.J., USA) at 1 or 10 μg/mL, and used to treat the cells. After 6 hours, total RNA was isolated with a TRIzol reagent (Takara, Shiga, Japan). The isolated total RNA was quantified using a NanoDrop 1000 (Thermo Fisher Scientific Inc.). cDNA was synthesized from 16 μL of the quantified RNA using a Reverse Transcriptase Premix (ELPIS-Biotech, Daejeon, Korea) and a PCR machine (Gene Amp PCR System 2700; Applied Biosystems, Foster City, Calif., USA) under conditions of 42° C. for 55 minutes and 70° C. for 15 minutes. […]

PGC-1α = PGC-1α luciferase reporter (pTA-Luc-PGC-1α plasmid) in transfected COS7 cells; conditions: treated at 5, 10, 20, 40 or 60 μg/mL, **p<0.01, FIG. 11
Protocol: To confirm an effect of increasing an expression level of PGC-1α by treatment of COS7 cells with a Chrysanthemum extract, COS7 cells (ATCC) were transfected with a pTA-Luc-PGC-1α plasmid (Addgene) by the same method as described in Experimental Example 1-(1). Here, 10%, 30%, 50%, 70% and 90% ethanol extracts of Chrysanthemum, which were prepared in Example 1-(2), and the hot water extract of Chrysanthemum, which was prepared in Example 1-(5), were treated at 10 μg/mL.
To confirm an effect of increasing an expression level of PGC-1α by treatment of […] (ATCC) with the 95% ethanol extract of Chrysanthemum, the 95% ethanol extract of Chrysanthemum, prepared in Example 1-(2), was treated at 10 or 40 μg/mL by the same method as described in Experimental Example 1-(2).
(§4) To confirm an effect of increasing an expression level of PGC-1α by treatment of COS7 cells (ATCC) with 3,5-dicaffeoylquinic acid, the 3,5-dicaffeoylquinic acid obtained in Example 2 was treated at 5, 10, 20, 40 or 60 μg/mL by the same method as described in Experimental Example 1-(2), and the result is shown in FIG. 11.

p-mTOR = p-mTOR protein expression (western blot) in TNF-α-treated L6 myotubes; conditions: 1 or 10 μg/mL, 24 hours
Protocol: To confirm the muscle protein expression-increasing activity of a Chrysanthemum extract in L6 myoblasts (ATCC), which are muscle cells, after differentiation by the same method as described in Experimental Example 2, a sample was treated with the 30% ethanol extract of Chrysanthemum prepared in Example 1-(2) at 1 or 10 μg/mL. The samples were treated for 24 hours, and then the cells were dissolved in an NP-40 buffer solution (ELPIS-Biotech) containing a proteinase inhibitor cocktail (Sigma, St. Louis, Mo., USA). The cells dissolved in the buffer solution were transferred to a 1.5 mL tube for centrifugation at 13,000 rpm for 10 minutes, and then only a supernatant was taken. The supernatant obtained previously was quantified by a Bradford method (Bio-Rad Laboratories Inc., Hercules, Calif., USA). The quantified protein was boiled for 5 minutes and isolated by electrophoresis with a 10% SDS-PAGE gel, and then the isolated proteins were transferred to a nitrocellulose membrane. p-mTOR, mTOR, p-4EBP1, 4EBP1, p-P70S6K and P70S6K and an α-tubulin primary antibody were diluted in 2.5% bovine serum albumin (BSA; bioWORLD, Dublin, Ohio, USA) at a ratio of 1:1000, and the proteins which were transferred to a nitrocellulose membrane were reacted at room temperature for 20 hours. […]

MyoD = MyoD mRNA expression (RT-PCR) during L6 myotube differentiation; conditions: L6 muscle cells, 10, 20 or 40 μg/mL during differentiation, FIG. 14
Protocol: as §1, §2

atrogin-1 = atrogin-1 mRNA expression (RT-PCR) in TNF-α-treated L6 myotubes; conditions: 50 ng/mL TNF-α, 1 or 10 μg/mL, 6 hours
Protocol: as §3

SIRT1 = SIRT1 luciferase reporter (pTA-Luc-SIRT1 plasmid) in transfected COS7 cells; conditions: treated at 20, 40 or 60 μg/mL (5 to 60 μg/mL tested), **p<0.01, FIG. 10
Protocol: To confirm an effect of increasing an expression level of SIRT1 by treatment of COS7 cells (ATCC) with a Chrysanthemum extract, COS7 cells (ATCC) were transfected with a pTA-Luc-SIRT1 plasmid (Addgene) by the same method as described in Experimental Example 1-(1). Here, the 95% ethanol extract of Chrysanthemum prepared in Example 1-(2) was treated at 20, 30 or 40 μg/mL, and the result is shown in FIG. 4.
as §4, with “SIRT1” for “PGC-1α”, “1-(4),” for “1-(2),”, “10.” for “11.”

Structure (SMILES): O=C(/C=C/c1ccc(O)c(O)c1)O[C@@H]1CC(O)(C(=O)O)C[C@@H](OC(=O)/C=C/c2ccc(O)c(O)c2)C1O (stereo partly drawn) [3,5-dicaffeoylquinic acid, (3R,5R)-3,5-bis[[(E)-3-(3,4-dihydroxyphenyl)prop-2-enoyl]oxy]-1,4-dihydroxycyclohexane-1-carboxylic acid]
- mRNA expression level of myogenin (myogenin): increased in a concentration-dependent manner
- mRNA expression level of MuRF-1 increased by TNF-α (MuRF-1): decreased in a concentration dependent manner
- expression level of PGC-1α (PGC-1α): significantly increased
- p-mTOR protein expression level reduced by TNF-α (p-mTOR): increased in a concentration-dependent manner
- mRNA expression level of MyoD (MyoD): increased in a concentration-dependent manner
- mRNA expression level of atrogin-1 increased by TNF-α (atrogin-1): decreased in a concentration dependent manner
- expression level of SIRT1 (SIRT1): significantly increased
